Assay results from the supplement of paper PMC11208160.

Test: recombinant UMI read abundance after kanamycin selection (control-corrected) (log10(CPM+1)); higher = more efficient recombination; extreme values may be limits of the assay; sequences stand for … in AGTGCAGAGAAAATCGGCCAGTTTTCTCTGCCTGCAGTCCGCATGCCGTGGGACCCCTTGGGTTCTAACCTGTTGCCTAGATTTATGCAGCGGACTGCCTTTCTCCCAAAGTGATAAACCGG…AGGTTGGTTTCACT; site = the 11-nt donor
In short: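 The measure is log10(CPM+1) for recombinant UMIs. These were PCR-amplified across the donor–target junction and sequenced after Escherichia coli carrying a donor and donor-binding-loop pair library and a target plasmid with T7-inducible IS621 bridge recombinase was plated on IPTG (0.07 mM) plus kanamycin or unselected. CPM were averaged over two replicates and scaled by control-derived factors.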
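Note: IS621 bridge recombinase in Escherichia coli cells against a fixed T5 target plasmid.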

Point of comparison: “GGCCAGCCATGGACCGGTTTTCCCGGTAATCCGTATTTGTT (site GGCCATCCTAA)”, “recombinant UMI read abundance (log10)” value 0. Against it:
- GGATATACATGGACCGGTTTTCCCGGTAATCCGTATTTGAT (site GGATATACTAT) — higher, 2.03
- GGATCGACATGGACCGGTTTTCCCGGTAATCCGTATTTGTA (site GGATCGACTTA) — higher, 0.775
- GGATCGTCATGGACCGGTTTTCCCGGTAATCCGTATTTGCT (site CGATCATCTAG) — higher, 0.402
- GGATCGTCATGGACCGGTTTTCCCGGTAATCCGTATTTGCT (site GGATCGTCTAG) — higher, 2.28
- GGATGAACATGGACCGGTTTTCCCGGTAATCCGTATTTGTT (site GGATGAACTAA) — higher, 1.78
- GGATTCACATGGACCGGTTTTCCCGGTAATCCGTATTTGTT (site GGATTCACTAA) — higher, 1.44
- GGATTGGCATGGACCGGTTTTCCCGGTAATCCGTATTTGGT (site GGAATGGCTAC) — higher, 0.341
- GGATTGGCATGGACCGGTTTTCCCGGTAATCCGTATTTGGT (site GGACTGGCTAC) — higher, 0.611
- GGATTGGCATGGACCGGTTTTCCCGGTAATCCGTATTTGGT (site GGAGTGGCTAC) — within 0.2 log units, 0.0175
- GGATTGGCATGGACCGGTTTTCCCGGTAATCCGTATTTGGT (site GGATTGGCTAC) — higher, 1.46
- GGCAAACCATGGACCGGTTTTCCCGGTAATCCGTATTTGGT (site GACAAACCTAC) — the same, 0
- GGCAAACCATGGACCGGTTTTCCCGGTAATCCGTATTTGGT (site GCCAAACCTAC) — the same, 0
- GGCAAACCATGGACCGGTTTTCCCGGTAATCCGTATTTGGT (site GGCAAACCTAC) — the same, 0
- GGCAAACCATGGACCGGTTTTCCCGGTAATCCGTATTTGGT (site GTCAAACCTAC) — the same, 0
- GGCAACCCATGGACCGGTTTTCCCGGTAATCCGTATTTGAA (site GGCAAACCTTT) — the same, 0
- GGCAACCCATGGACCGGTTTTCCCGGTAATCCGTATTTGAA (site GGCAACCCTTT) — within 0.2 log units, 0.0234
- GGCAACCCATGGACCGGTTTTCCCGGTAATCCGTATTTGAA (site GGCAAGCCTTT) — the same, 0
- GGCAACCCATGGACCGGTTTTCCCGGTAATCCGTATTTGAA (site GGCAATCCTTT) — within 0.2 log units, 0.00284
- GGCAATCCATGGACCGGTTTTCCCGGTAATCCGTATTTGAT (site GGCAATCCTAT) — within 0.2 log units, 0.192
- GGCAATCCATGGACCGGTTTTCCCGGTAATCCGTATTTGAT (site GGCAATCCTCT) — within 0.2 log units, 0.0105
- GGCAATCCATGGACCGGTTTTCCCGGTAATCCGTATTTGAT (site GGCAATCCTGT) — the same, 0
- GGCAATCCATGGACCGGTTTTCCCGGTAATCCGTATTTGAT (site GGCAATCCTTT) — within 0.2 log units, 0.00349
- GGCAATCCATGGACCGGTTTTCCCGGTAATCCGTATTTGCA (site GGCAATCCTTA) — higher, 0.227
- GGCAATCCATGGACCGGTTTTCCCGGTAATCCGTATTTGCA (site GGCAATCCTTC) — within 0.2 log units, 0.0145
- GGCAATCCATGGACCGGTTTTCCCGGTAATCCGTATTTGCA (site GGCAATCCTTG) — the same, 0
- GGCAATCCATGGACCGGTTTTCCCGGTAATCCGTATTTGCA (site GGCAATCCTTT) — within 0.2 log units, 0.0136
- GGCAATTCATGGACCGGTTTTCCCGGTAATCCGTATTTGAA (site GGCAATACTTT) — within 0.2 log units, 0.0193
- GGCAATTCATGGACCGGTTTTCCCGGTAATCCGTATTTGAA (site GGCAATCCTTT) — within 0.2 log units, 0.0153
- GGCAATTCATGGACCGGTTTTCCCGGTAATCCGTATTTGAA (site GGCAATGCTTT) — within 0.2 log units, 0.0122
- GGCAATTCATGGACCGGTTTTCCCGGTAATCCGTATTTGAA (site GGCAATTCTTT) — higher, 0.996
- GGCAGAACATGGACCGGTTTTCCCGGTAATCCGTATTTGTG (site GGCAGAACTCA) — higher, 1.3
- GGCAGCCCATGGACCGGTTTTCCCGGTAATCCGTATTTGAC (site GGCAGCCCTGT) — the same, 0
- GGCAGCGCATGGACCGGTTTTCCCGGTAATCCGTATTTGCT (site GGCAGCGCTAG) — higher, 2.43
- GGCAGTCCATGGACCGGTTTTCCCGGTAATCCGTATTTGAA (site GGCAATCCTTT) — within 0.2 log units, 0.00812
- GGCAGTCCATGGACCGGTTTTCCCGGTAATCCGTATTTGAA (site GGCACTCCTTT) — within 0.2 log units, 0.018
- GGCAGTCCATGGACCGGTTTTCCCGGTAATCCGTATTTGAA (site GGCAGTCCTTT) — within 0.2 log units, 0.191
- GGCAGTCCATGGACCGGTTTTCCCGGTAATCCGTATTTGAA (site GGCATTCCTTT) — the same, 0
- GGCAGTCCATGGACCGGTTTTCCCGGTAATCCGTATTTGGG (site GGCAGTCCTCC) — within 0.2 log units, 0.00418
- GGCAGTGCATGGACCGGTTTTCCCGGTAATCCGTATTTGGA (site GGCAGTGCTTC) — higher, 0.329
- GGCATTCCATGGACCGGTTTTCCCGGTAATCCGTATTTGAA (site GGCAATCCTTT) — the same, 0
- GGCATTCCATGGACCGGTTTTCCCGGTAATCCGTATTTGAA (site GGCACTCCTTT) — within 0.2 log units, 0.0138
- GGCATTCCATGGACCGGTTTTCCCGGTAATCCGTATTTGAA (site GGCAGTCCTTT) — within 0.2 log units, 0.00406
- GGCATTCCATGGACCGGTTTTCCCGGTAATCCGTATTTGAA (site GGCATTCCTTT) — higher, 0.29
- GGCATTGCATGGACCGGTTTTCCCGGTAATCCGTATTTGGT (site GGCATTGCTAC) — higher, 1.48
- GGCATTTCATGGACCGGTTTTCCCGGTAATCCGTATTTGGG (site GGCATTTCTCC) — the same, 0
- GGCCAGCCATGGACCGGTTTTCCCGGTAATCCGTATTTGTT (site GGCCAACCTAA) — within 0.2 log units, 0.00333
- GGCCAGCCATGGACCGGTTTTCCCGGTAATCCGTATTTGTT (site GGCCACCCTAA) — within 0.2 log units, 0.0285
- GGCCAGCCATGGACCGGTTTTCCCGGTAATCCGTATTTGTT (site GGCCAGCCTAA) — within 0.2 log units, 0.00292
- GGCCCGACATGGACCGGTTTTCCCGGTAATCCGTATTTGCT (site GGCCCGACTAG) — higher, 1.49
- GGCCCTGCATGGACCGGTTTTCCCGGTAATCCGTATTTGTA (site GGCCCTGCTTA) — higher, 0.378
- GGCGAACCATGGACCGGTTTTCCCGGTAATCCGTATTTGAA (site GGCGAACCTTT) — the same, 0
- GGCGATTCATGGACCGGTTTTCCCGGTAATCCGTATTTGGC (site GGCGATTCTGC) — higher, 1.57
- GGCGCAGCATGGACCGGTTTTCCCGGTAATCCGTATTTGGT (site GGCGCAGCTAC) — higher, 0.482
- GGCGCGACATGGACCGGTTTTCCCGGTAATCCGTATTTGCC (site GGCGCGACTGG) — higher, 1.35
- GGCGGCGCATGGACCGGTTTTCCCGGTAATCCGTATTTGTA (site GGCGGCGCTTA) — higher, 0.781
- GGCTACCCATGGACCGGTTTTCCCGGTAATCCGTATTTGTT (site GGCAACCCTAA) — within 0.2 log units, 0.00887
- GGCTACCCATGGACCGGTTTTCCCGGTAATCCGTATTTGTT (site GGCCACCCTAA) — higher, 0.268
- GGCTACCCATGGACCGGTTTTCCCGGTAATCCGTATTTGTT (site GGCGACCCTAA) — within 0.2 log units, 0.015
- GGCTACCCATGGACCGGTTTTCCCGGTAATCCGTATTTGTT (site GGCTACCCTAA) — within 0.2 log units, 0.0101
- GGCTAGTCATGGACCGGTTTTCCCGGTAATCCGTATTTGAC (site GGCTAGTCTGT) — the same, 0
- GGCTCGTCATGGACCGGTTTTCCCGGTAATCCGTATTTGCA (site GGCTCGTCTTG) — higher, 2.16
- GGCTCTACATGGACCGGTTTTCCCGGTAATCCGTATTTGGC (site GGCTCTACTGC) — the same, 0
- GGCTCTGCATGGACCGGTTTTCCCGGTAATCCGTATTTGCT (site GGCTCTGCTAG) — higher, 1.66
- GGCTTAGCATGGACCGGTTTTCCCGGTAATCCGTATTTGAG (site GGCTTAGCTCT) — higher, 1.13
- GGCTTGACATGGACCGGTTTTCCCGGTAATCCGTATTTGCG (site GGCTTGACTCG) — higher, 0.919
- GGGAAGACATGGACCGGTTTTCCCGGTAATCCGTATTTGGA (site AGGAAGACTTG) — within 0.2 log units, 0.00654
- GGGAAGACATGGACCGGTTTTCCCGGTAATCCGTATTTGGA (site GGGAAGACTTC) — higher, 1.22
